Where “and” joins values, the source holds several entries; their conditions need not be identical. Identical values can stand only once. Like-named read-outs stand apart in the source and are kept apart here.
Columns and labels:
SARS-CoV-2 [1] = experiment: microbe, parasite or virus in culture; assay type: cell-based; details: for Inhibiting rate, %: 3 μM
[2] = cited from earlier work
[3] = some healthy subjects, 3 hours after taking the drug; cited from earlier work
[4] = rats, Male, cited from earlier work
[5] = rats, oral 54 mg/kg, cited from earlier work
SARS-CoV-2 [6] = experiment: Time-of-addition assay (duration of action) in Vero E6 cells; assay type: cell-based; details: CVL218 20 μM, remdesivir 10 μM, 14 h after infection
IL-6 production in PBMCs = assay type: cell-based; details: 12 hours
[7] = Pharmacokinetic study of CVL218 in rats; assay type: in vivo, Sprague-Dawley rats
Description: (§1) Sprague-Dawley rats were purchased from Animal Experiment Center of Shanghai, China. The experimental animals were housed in groups in wire cages, with no more than 6 animals per cage. The experimental conditions were good (temperature 25±2° C.; relative humidity 50±20%) and light-dark cycle (12 hours/12 hours). 144 Sprague-Dawley rats were randomized into 4 groups (18 animals/gender/group). CVL218 was administered at doses of 20, 40, 60 and 160 mg/kg. For all groups, 20 rats (10 animals/gender/group) were randomly selected, euthanized on day 28, and sections of various tissues and organs were obtained and frozen. Ten (5/gender/group) animals were euthanized after a 28-day drug-free period, and sections of their tissues and organs were taken and frozen. Six animals (3/gender/group) were euthanized after blood samples were collected. For pharmacokinetics and safety evaluations, the blood concentrations, clinical symptoms, mortality and body weight of animals were examined.

[8] = Tissue distribution study of CVL218 in rats (LC-MS-MS); assay type: in vivo, Sprague-Dawley rats; details: for Tissue concentration, Brain / Tissue concentration, Heart / Tissue concentration, Kidney / Tissue concentration, Liver / Tissue concentration, Lung / Tissue concentration, Spleen / Tissue concentration, Stomach: oral 20 mg/kg
Description: Sprague-Dawley rats were randomized into 3 time-point groups (3 animals/gender/group). At 3, 6 and 8 hours after CVL218 administration, animals were sacrificed, and the brain, heart, lung, liver, spleen, stomach and kidney tissues were collected. The tissue samples were washed with ice-cold physiological saline and weighed after excess liquid was removed with paper towels. After tissue sample solutions were weighed, they were stored at −20±2° C. until the drug concentration was determined by LC-MS-MS.

[9] = Body weight of rats, 28 days oral administration and 28 days without; assay type: in vivo, Sprague-Dawley rats; details: oral 20/60/160 mg/kg, then 28 days off
Description: as §1

[10] = Safety study in cynomolgus monkeys (body weight); assay type: in vivo; details: 5/20/80 mg/kg, 28 days, then 28 days off
Description: Healthy male and female monkeys, aged 3-4 years, were purchased from Landao Biotechnology, Guangdong, China. Animals were fed in accordance with the Guide for Care and Use of Laboratory Animals. The animals were randomized (5 animals/gender/group), and were fed with CVL218 via nasogastric at dose levels of 0 (control), 5, 20 and 80 mg/kg. Monkeys were observed twice daily for any changes in viability/mortality and behavior, response to treatment or health status.

SARS-CoV-2 [11] = system: SARS-CoV-2

## CCOC(=O)c1c(CSc2ccccc2)n(C)c2cc(Br)c(O)c(CN(C)C)c12 [Arbidol, arbidol]
SARS-CoV-2 [1]; Vero-E6, MOI 0.05, 48 h
  Inhibiting rate, %: 21.73%
SARS-CoV-2 [1]; Severe acute respiratory syndrome coronavirus 2, Vero C1008, 48 h, read-out: Inhibiting rate, %, 3 μM, Vero-E6, MOI 0.05, 48 h
  inhibition at 3 µM: 21%
SARS-CoV-2 [1]; Severe acute respiratory syndrome coronavirus 2, Vero C1008, 48 h, read-out: Inhibiting rate, %, 30 μM, Vero-E6, MOI 0.05, 48 h
  inhibition at 30 µM: 98.9%
[2]; nausea, diarrhea, dizziness, increased serum transaminases
  Adverse events, share of subjects: about 6.2%
[2]; single oral dose 200 mg
  Peak concentration: 614.1 ± 342.5 ng/mL
[2]; single oral dose 400 mg
  Peak concentration: 904.2 ± 355.6 ng/mL
[2]; single oral dose 600 mg
  Peak concentration: 975.1 ± 661.0 ng/mL
[3]
  Heart rate decrease: 2-24 beats/minute
[4]; oral 18 mg/kg
  AUC0-t: 1956 ± 895 ngh/mL
  AUC0-∞: 2224 ± 1058 ngh/mL
  Cmax: 1002 ± 298 ng/mL
  Tmax: 0.28 h
  t1/2: 3.6 ± 1.2 h
[4]; oral 54 mg/kg
  AUC0-t: 6790 ± 2749 ngh/mL
  AUC0-∞: 7558 ± 2877 ngh/mL
  Cmax: 4711 ± 2361 ng/mL
  Tmax: 0.18 h
  t1/2: 3.3 ± 0.7 h
[5]; 5 min
  Tissue concentration, Brain: 101 ± 67
  Tissue concentration, Heart: 72 ± 47
  Tissue concentration, Kidney: 79 ± 54
  Tissue concentration, Liver: 104 ± 82
  Tissue concentration, Spleen: 48 ± 35
  Tissue concentration, Stomach: 8210 ± 5410
[5]; 15 min
  Tissue concentration, Brain: 50 ± 10
  Tissue concentration, Heart: 132 ± 69
  Tissue concentration, Kidney: 259 ± 190
  Tissue concentration, Liver: 963 ± 290
  Tissue concentration, Spleen: 519 ± 281
  Tissue concentration, Stomach: 23180 ± 10170
[5]; 360 min
  Tissue concentration, Brain: 31 ± 21
  Tissue concentration, Heart: 41 ± 28
  Tissue concentration, Kidney: 58 ± 21
  Tissue concentration, Liver: 262 ± 175
  Tissue concentration, Spleen: 143 ± 51
  Tissue concentration, Stomach: 52750 ± 3059

## CNCc1ccc(-c2cc3cc(F)cc(C(N)=O)c3o2)cc1.Cl [CVL218, mefuparib hydrochloride]
SARS-CoV-2 [1]; Vero-E6, MOI 0.05, 48 h, hydrochloride
  Inhibiting rate, %: 35% and 35.16%
SARS-CoV-2 [1]; different batches, hydrochloride, read-out: EC50 against SARS-CoV-2
  EC50: 7.67 µM and 5.12 µM
SARS-CoV-2 [6]
  Antiviral activity, after the virus enters: significantly inhibit the replication after viral entry
  Antiviral activity, when the virus enters: partially antagonize viral entry
SARS-CoV-2 [6]; versus DMSO
  Antiviral activity, whole process treatment: stronger antiviral activity
IL-6 production in PBMCs; 1 μM
  Reduction of CpG-induced IL-6 production: 50%
IL-6 production in PBMCs; 3 μM
  Reduction of CpG-induced IL-6 production: 72.65%
[7]; oral 20 mg/kg, Female
  AUC0-t: 2196 ± 228 ngh/mL
  AUC0-∞: 2222 ± 241 ngh/mL
  Cmax: 502 ± 80 ng/mL
  MRT0-∞: 3.16 h
  Tmax: 3.0 h
  t1/2: 1.1 ± 0.16 h
[7]; oral 20 mg/kg, Male
  AUC0-t: 1070 ± 176 ngh/mL
  AUC0-∞: 1111 ± 192 ngh/mL
  Cmax: 234 ± 35 ng/mL
  MRT0-∞: 3.91 h
  Tmax: 4.0 h
  t1/2: 1.19 ± 0.09 h
[7]; oral 20 mg/kg, Total
  AUC0-t: 1633 ± 643 ngh/mL
  AUC0-∞: 1666 ± 639 ngh/mL
  Cmax: 368 ± 157 ng/mL
  MRT0-∞: 3.54 h
  Tmax: 3.5 h
  t1/2: 1.15 ± 0.13 h
[7]; oral 40 mg/kg, Female
  AUC0-t: 5220 ± 1113 ngh/mL
  AUC0-∞: 5242 ± 1115 ngh/mL
  Cmax: 940 ± 117 ng/mL
  MRT0-∞: 4.05 h
  Tmax: 2.0 h
  t1/2: 1.29 ± 0.21 h
[7]; oral 40 mg/kg, Male
  AUC0-t: 2802 ± 967 ngh/mL
  AUC0-∞: 2830 ± 983 ngh/mL
  Cmax: 510 ± 259 ng/mL
  MRT0-∞: 4.51 h
  Tmax: 3.0 h
  t1/2: 1.3 ± 0.33 h
[7]; oral 40 mg/kg, Total
  AUC0-t: 4011 ± 1620 ngh/mL
  AUC0-∞: 4036 ± 1620 ngh/mL
  Cmax: 725 ± 296 ng/mL
  MRT0-∞: 4.28 h
  Tmax: 2.5 h
  t1/2: 1.3 ± 0.24 h
[8]
  Tissue/serum drug concentration ratio, Brain: 9.728 ± 1.130
  Tissue/serum drug concentration ratio, Heart: 16.514 ± 1.348
  Tissue/serum drug concentration ratio, Kidney: 41.307 ± 5.391
  Tissue/serum drug concentration ratio, Liver: 46.780 ± 5.215
  Tissue/serum drug concentration ratio, Spleen: 54.897 ± 6.250
  Tissue/serum drug concentration ratio, Stomach: 22.133 ± 7.130
[8]; hydrochloride
  Tissue/serum drug concentration ratio, Lung: 188 and 188.364 ± 28.467
[8]; 180 min
  Tissue concentration, Brain: 3580 ± 416
  Tissue concentration, Heart: 6077 ± 496
  Tissue concentration, Kidney: 15201 ± 1984
  Tissue concentration, Liver: 17215 ± 1919
  Tissue concentration, Lung: 69318 ± 10476
  Tissue concentration, Spleen: 20202 ± 2300
  Tissue concentration, Stomach: 8145 ± 2624
[8]; 360 min
  Tissue concentration, Brain: 998 ± 220
  Tissue concentration, Heart: 1390 ± 292
  Tissue concentration, Kidney: 3903 ± 594
  Tissue concentration, Liver: 2187 ± 859
  Tissue concentration, Lung: 18858 ± 2365
  Tissue concentration, Spleen: 6358 ± 1058
  Tissue concentration, Stomach: 1871 ± 813
[8]; 480 min
  Tissue concentration, Brain: 317 ± 55
  Tissue concentration, Heart: 275 ± 80
  Tissue concentration, Kidney: 993 ± 327
  Tissue concentration, Liver: 213 ± 88
  Tissue concentration, Lung: 4183 ± 847
  Tissue concentration, Spleen: 1475 ± 324
  Tissue concentration, Stomach: 569 ± 293
[9]
  Body weight versus control group: no significant difference in body weight
[10]
  Body weight versus control group: no significant difference in body weight
SARS-CoV-2 [11]; 25 μM
  Cytopathic effect in infected cells: No apparent cytopathic effect
SARS-CoV-2 [11]; 5, 15, 25 μM, 14 h after infection, versus DMSO treated cells
  Expression of the viral nucleoprotein (NP): significantly lower

Source: US20240016775A1, “ANTI-CORONAVIRUS APPLICATION OF POLY ADP RIBOSE POLYMERASE INHIBITOR” (FUKANG (SHANGHAI) HEALTH TECHNOLOGY CO., LTD, priority 2020, published 2024)
